Toxic doses and inconclusive results are not listed. Rule for the calls: active = survival T/C of 150% or more; inactive = T/C below 125% in these data.
Tested on: CD2F1 mice, L1210 leukemia ip, survival T/C
Assay: NCI In Vivo Anticancer Drug Screen. Data for tumor model L1210 Leukemia (intraperitoneal) in CD2F1 (CDF1) mice
Settings: higher = longer survival
Method in brief: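 Read-out first: treated-group measurement over vehicle-control measurement, expressed as a ratio. Animals bore a transplanted tumor line and were dosed with compound or vehicle.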

[1] = endpoint: mean survival time, dose: 12.5 mg/kg/injection, schedule: Q01DX009 (ip), vehicle: other
[2] = endpoint: mean survival time, dose: 25.0 mg/kg/injection, schedule: Q01DX009 (ip), vehicle: other
[3] = endpoint: mean survival time, dose: 50.0 mg/kg/injection, schedule: Q01DX009 (ip), vehicle: other
[4] = endpoint: mean survival time, dose: 100.0 mg/kg/injection, schedule: Q01DX001 (ip), vehicle: saline with Tween-80
[5] = endpoint: mean survival time, dose: 100.0 mg/kg/injection, schedule: Q04DX003 (ip), vehicle: saline with Tween-80
[6] = endpoint: mean survival time, dose: 200.0 mg/kg/injection, schedule: Q04DX003 (ip), vehicle: saline with Tween-80
[7] = endpoint: mean survival time, dose: 400.0 mg/kg/injection, schedule: Q04DX003 (ip), vehicle: saline with Tween-80
[8] = endpoint: mean survival time, dose: 100.0 mg/kg/injection, schedule: Q01DX009 (ip), vehicle: saline with Tween-80
[9] = endpoint: mean survival time, dose: 200.0 mg/kg/injection, schedule: Q01DX009 (ip), vehicle: saline with Tween-80
[10] = endpoint: mean survival time, dose: 50.0 mg/kg/injection, schedule: Q01DX009 (ip), vehicle: Klucel (hydroxypropylcellulose) (HPC)
[11] = endpoint: mean survival time, dose: 100.0 mg/kg/injection, schedule: Q01DX009 (ip), vehicle: Klucel (hydroxypropylcellulose) (HPC)
[12] = endpoint: mean survival time, dose: 200.0 mg/kg/injection, schedule: Q01DX001 (ip), vehicle: saline with Tween-80
[13] = endpoint: mean survival time, dose: 400.0 mg/kg/injection, schedule: Q01DX001 (ip), vehicle: saline with Tween-80
[14] = endpoint: mean survival time, dose: 100.0 mg/kg/injection, schedule: Q04DX003 (ip), vehicle: saline
[15] = endpoint: mean survival time, dose: 200.0 mg/kg/injection, schedule: Q04DX003 (ip), vehicle: saline

Measured: T/C

CC1(C)/C(=N/Nc2ccc([N+](=O)[O-])cc2[N+](=O)[O-])CCc2ccccc21
inactive: [1] 94 % of control | [2] 97 % of control | [3] 90 % of control | endpoint: mean survival time, dose: 100.0 mg/kg/injection, schedule: Q01DX009 (ip), vehicle: other 94 % of control | endpoint: mean survival time, dose: 200.0 mg/kg/injection, schedule: Q01DX009 (ip), vehicle: other 90 % of control

CC(=O)OC(CCl)C(Cl)CCl (stereo not drawn)
inactive: endpoint: mean survival time, dose: 12.5 mg/kg/injection, schedule: Q04DX002 (ip), vehicle: saline with Tween-80 103 % of control | endpoint: mean survival time, dose: 25.0 mg/kg/injection, schedule: Q04DX002 (ip), vehicle: saline with Tween-80 106 % of control | endpoint: mean survival time, dose: 50.0 mg/kg/injection, schedule: Q04DX002 (ip), vehicle: saline with Tween-80 92 % of control | endpoint: mean survival time, dose: 100.0 mg/kg/injection, schedule: Q01DX001 (ip), vehicle: saline sonified 95 % of control | endpoint: mean survival time, dose: 200.0 mg/kg/injection, schedule: Q01DX001 (ip), vehicle: saline sonified 95 % of control | endpoint: mean survival time, dose: 400.0 mg/kg/injection, schedule: Q01DX001 (ip), vehicle: saline sonified 108 % of control

CC(=O)Oc1ccc2c(c1)C(=O)CCC=C2
inactive: [1] 103 % of control | [2] 106 % of control | [3] 108 % of control

CCCCC(O)(c1ccccc1)C1CN(C(C)(C)C)C1c1ccccc1 (stereo not drawn)
inactive: endpoint: mean survival time, dose: 25.0 mg/kg/injection, schedule: Q01DX001 (ip), vehicle: saline with Tween-80 95 % of control | endpoint: mean survival time, dose: 50.0 mg/kg/injection, schedule: Q01DX001 (ip), vehicle: saline with Tween-80 91 % of control | [4] 86 % of control

Nc1nc(N)c(N=Nc2ccc(SCC(=O)O)cc2)c(N)n1
inactive: [5] 102 % of control | [6] 104 % of control | [7] 95 % of control

O=C(Nc1c(Cl)cccc1Cl)OCCOc1ccc(Cl)cc1
inactive: endpoint: mean survival time, dose: 50.0 mg/kg/injection, schedule: Q01DX009 (ip), vehicle: saline with Tween-80 94 % of control | [8] 105 % of control | [9] 105 % of control

O=C(NCO)c1ccccc1
inactive: [10] 96 % of control | [11] 96 % of control | endpoint: mean survival time, dose: 200.0 mg/kg/injection, schedule: Q01DX009 (ip), vehicle: Klucel (hydroxypropylcellulose) (HPC) 96 % of control

CCOC(=O)N1C(=O)c2ccccc2C1=O
inactive: [8] 93 % of control | [9] 93 % of control | endpoint: mean survival time, dose: 400.0 mg/kg/injection, schedule: Q01DX009 (ip), vehicle: saline with Tween-80 100 % of control

Cc1nc(N)[nH]c(=O)c1-n1nnc2ccccc2c1=O
inactive: [4] 92 % of control | [12] 87 % of control | [13] 89 % of control

O=C(Oc1ccccc1)c1cc(O)c(O)c(O)c1
inactive: endpoint: median survival time, dose: 25.0 mg/kg/injection, schedule: Q01DX009 (ip), vehicle: saline with Tween-80 101 % of control | endpoint: median survival time, dose: 50.0 mg/kg/injection, schedule: Q01DX009 (ip), vehicle: saline with Tween-80 98 % of control | endpoint: median survival time, dose: 100.0 mg/kg/injection, schedule: Q01DX009 (ip), vehicle: saline with Tween-80 105 % of control | endpoint: median survival time, dose: 200.0 mg/kg/injection, schedule: Q01DX009 (ip), vehicle: saline with Tween-80 112 % of control

CCCCNC(=O)CC(C)C(=O)O (stereo not drawn)
inactive: [5] 102 % of control | [6] 98 % of control | [7] 102 % of control

O=C(C=C(C(F)(F)F)C(F)(F)F)c1ccc(Br)cc1
inactive: [1] 107 % of control | [2] 110 % of control | endpoint: mean survival time, dose: 100.0 mg/kg/injection, schedule: Q04DX003 (ip), vehicle: other 105 % of control

O=c1[nH]cc(Cc2cccc(OCc3ccccc3)c2)c(=O)[nH]1
inactive: endpoint: mean survival time, dose: 75.0 mg/kg/injection, schedule: Q01DX001 (ip), vehicle: saline with Tween-80 97 % of control | endpoint: mean survival time, dose: 150.0 mg/kg/injection, schedule: Q01DX001 (ip), vehicle: saline with Tween-80 98 % of control | endpoint: mean survival time, dose: 300.0 mg/kg/injection, schedule: Q01DX001 (ip), vehicle: saline with Tween-80 89 % of control

C1CCC(C2CCCC[N-]2)[N-]C1.C1CCC(C2CCCC[N-]2)[N-]C1.O=N[O-].O=N[O-].[Ru+4] (stereo not drawn)
inactive: endpoint: mean survival time, dose: 3.13 mg/kg/injection, schedule: Q04DX003 (ip), vehicle: distilled water + Tween-80 90 % of control | endpoint: mean survival time, dose: 6.25 mg/kg/injection, schedule: Q04DX003 (ip), vehicle: distilled water + Tween-80 95 % of control | endpoint: mean survival time, dose: 12.5 mg/kg/injection, schedule: Q04DX003 (ip), vehicle: distilled water + Tween-80 95 % of control | endpoint: mean survival time, dose: 25.0 mg/kg/injection, schedule: Q04DX003 (ip), vehicle: distilled water + Tween-80 93 % of control | endpoint: mean survival time, dose: 50.0 mg/kg/injection, schedule: Q04DX003 (ip), vehicle: distilled water + Tween-80 92 % of control | endpoint: mean survival time, dose: 100.0 mg/kg/injection, schedule: Q04DX003 (ip), vehicle: distilled water + Tween-80 90 % of control | endpoint: mean survival time, dose: 200.0 mg/kg/injection, schedule: Q04DX003 (ip), vehicle: distilled water + Tween-80 90 % of control

CN1C(C(=O)O)CCC1C(=O)O (stereo not drawn)
inactive: [14] 96 % of control | [15] 98 % of control

N#Cc1ccc(CCl)cc1
inactive: [10] 98 % of control | [11] 98 % of control

Cc1nc(N)[nH]c(=O)c1CCCN
inactive: [14] 95 % of control | [15] 98 % of control | endpoint: mean survival time, dose: 400.0 mg/kg/injection, schedule: Q04DX003 (ip), vehicle: saline 95 % of control

O=C1CC(=O)NC(=S)N1
inactive: endpoint: mean survival time, dose: 100.0 mg/kg/injection, schedule: Q01DX009 (ip), vehicle: saline 95 % of control | endpoint: mean survival time, dose: 200.0 mg/kg/injection, schedule: Q01DX009 (ip), vehicle: saline 93 % of control

c1ccc2c(c1)CC1Nc3ccccc3C21 (stereo not drawn)
inactive: [4] 97 % of control | [12] 97 % of control | [13] 96 % of control

Cc1c(C(=O)O)nc(/C=C/C(Cl)(Cl)Cl)[nH]c1=O
inactive: endpoint: mean survival time, dose: 25.0 mg/kg/injection, schedule: Q01DX005 (ip), vehicle: other 104 % of control | endpoint: mean survival time, dose: 50.0 mg/kg/injection, schedule: Q01DX005 (ip), vehicle: other 103 % of control | endpoint: mean survival time, dose: 100.0 mg/kg/injection, schedule: Q01DX005 (ip), vehicle: other 97 % of control | endpoint: mean survival time, dose: 200.0 mg/kg/injection, schedule: Q01DX005 (ip), vehicle: other 106 % of control | endpoint: mean survival time, dose: 400.0 mg/kg/injection, schedule: Q01DX005 (ip), vehicle: other 95 % of control

c1ccc2c(c1)oc1c3ccccc3c3ccccc3c21
inactive: endpoint: median survival time, dose: 25.0 mg/kg/injection, schedule: Q04DX002 (ip), vehicle: saline with Tween-80 110 % of control | endpoint: median survival time, dose: 50.0 mg/kg/injection, schedule: Q04DX002 (ip), vehicle: saline with Tween-80 90 % of control | endpoint: median survival time, dose: 100.0 mg/kg/injection, schedule: Q04DX002 (ip), vehicle: saline with Tween-80 110 % of control | endpoint: median survival time, dose: 200.0 mg/kg/injection, schedule: Q04DX002 (ip), vehicle: saline with Tween-80 110 % of control

Source: PubChem BioAssay AID256 (DTP/NCI, 2004)
